Patent US5446157A, “Boron difluoride compounds useful in photodynamic therapy and production of laser light” (priority 1993, dated 1995)
Where a name gives a salt, the structure may show the parent alone.

Experiments:
[1] = test system: metastatic breast cancer spread to the chest wall; test: Topical photodynamic treatment of metastatic breast cancer of the chest wall, case history; assay type: in vivo, patient
From the text: The following case history also illustrates topical application of one of the compounds of the present invention in a person with a 12-year history of metastatic breast cancer spread to the chest wall. The patient had been treated with combinations of numerous chemotherapeutic agents and radiation therapy. Their cancer continued to progress and they received nine weekly treatments with a topical 0.3% solution of 1,3,5,7,8-pentamethylpyrromethene boron difluoride-2,6-disulfonate (PMPDS-BF2) in dimethylsulfoxide applied to the chest wall lesions followed by exposure to a General Electric sunlamp for ten minutes. The patient had initially a greater than 50% shrinkage of their tumor, which lasted over nine weeks.

[2] = Photostability under irradiation with 250 watt sun lamp; assay type: physicochemical; settings: sun lamp, in M-1cm-1 (unit assumed)
Protocol: In addition, experiments were conducted in order to determine the photostability of the product of Example I. A solution was prepared by mixing 0.1 g of the product with 50 ml of dichloromethane solvent. The solution was placed in a 100 ml round bottom flask and irradiated with light from a sun lamp (250 watts at a distance of approximately 8 inches from the flask). […] However, another solution was made by combining 0.1 g of product in 250 ml of CH3 OH and 10 ml of CH2 Cl2. Addition of the CH2 Cl2 was undertaken to obtain complete dissolution. The solution was placed in a […] and irradiated as described above. […] Thus, the use of different solvents will cause a variation in both the character and duration of fluorescence.
In addition, a further test was conducted in order to determine the photostability of the product. Specifically, 2.0 mg of the product in a 100 ml round bottom flask was dissolved in 50 ml of H2 O. The solution was then irradiated by light from a 250 watt sun lamp placed approximately 8 inches from the flask. UV spectral data was recorded periodically as shown below in Table III.

[3] = topical 0.3% solution in dimethylsulfoxide, sunlamp ten minutes

CC1=C(S(=O)(=O)O)C(C)=[N+]2C1=C(C)c1c(C)c(S(=O)(=O)O)c(C)n1[B-]2(F)F [PMPDS-BF2, Disodium salt of 4,4-difluoro-1,3,5,7,8-pentamethyl-4-bora-3a,4a-diaza-s-indacene-2,6-disulfonic acid monohydrate]
shrinkage of tumor ([1]; topical 0.3% solution in dimethylsulfoxide, nine weekly treatments, sunlamp ten minutes): greater than 50%
duration of tumor shrinkage [1, 3]: over nine
toxic reactions [1, 3]: no toxic reactions
course after nine week shrinkage ([1]; topical 0.3% solution, after nine weeks): the metastatic lesions again began to grow
ε492 (H2O) ([2]; 2.0 mg in 50 ml H2O, 0 hours): 76,995.38
ε492 (H2O) ([2]; H2O, 0.5 hours): 76,755.22
ε492 (H2O) ([2]; H2O, 1.0 hours): 75,556.52
ε492 (H2O) ([2]; H2O, 1.5 hours): 76,755.52
ε492 (H2O) ([2]; H2O, 2.5 hours): 75,316.35
ε492 (H2O) ([2]; H2O, 3.5 hours): 73,757.26
ε492 (H2O) ([2]; H2O, 6.0 hours): 69,799.55
ε492 (H2O) ([2]; H2O, 20.0 hours): 52,049.62
ε492 (H2O) ([2]; H2O, 21.5 hours): 51,569.90
ε492 (H2O) ([2]; H2O, 23.5 hours): 46,173.05
ε492 (H2O) ([2]; H2O, 25.5 hours): 45,573.40
ε492 (H2O) ([2]; H2O, 28.0 hours): 41,016.06
ε492 (H2O) ([2]; H2O, 30.5 hours): 37,178.46
ε492 (H2O) ([2]; H2O, 44.0 hours): 20,388.19
ε492 (H2O) ([2]; H2O, 50.0 hours): 13,192.355
ε492 (H2O) ([2]; H2O, 52.5 hours): 599.653
